Assays:
[1] = test system: Puccinia recondita f. Sp. Tritici; assay: Puccinia recondita f. sp. tritici / wheat / leaf disc preventative (brown rust); assay type: in vivo; settings: foliar, 168 h, 200 ppm in the applied formulation, wheat leaf segments cv. Kanzler, preventative, inoculated 1 day after application, assessed 7 to 9 days after application, vs untreated, read-out: disease control
Procedure, shortened: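 Preventative leaf-segment test: spray application of diluted formulated compound on wheat cv. Kanzler, spore inoculation after 1 day. Percent control relative to untreated segments rated 7 to 9 days post-application, with incubation at 19° C, 75% relative humidity, 12 h photoperiod.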

[2] = test system: Glomerella Lagenarium (Colletotrichum Lagenarium); assay: Glomerella lagenarium (Colletotrichum lagenarium) liquid culture / cucumber / preventative (anthracnose); assay type: cell-based; settings: Colletotrichum orbiculare; 20 ppm in the applied formulation; liquid culture in PDB, 24° C., inhibition of growth measured photometrically 3 to 4 days after application, vs untreated; read-out: disease control
Procedure, shortened: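 Conidia from cryogenic storage were mixed into potato dextrose broth. This was added to compound diluted from DMSO into 0.025% Tween20, tested at 20 ppm. Plates were incubated in the dark at 24 °C and 96% relative humidity, and growth was read photometrically after 2–7 days as % activity versus untreated check.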

[3] = test system: Puccinia recondita f. Sp. Tritici; assay: Puccinia recondita f. sp. tritici / wheat / leaf disc curative (brown rust); assay type: in vivo; settings: foliar, 144 h, 200 ppm in the applied formulation, wheat leaf segments cv. Kanzler, applied 1 day after inoculation, assessed 6 to 8 days after application, vs untreated, read-out: disease control
Procedure, shortened: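 Curative leaf-segment test, cv. Kanzler: spore inoculation, dark storage 19° C/75% RH, compound spray 1 day post-inoculation. Then 12 h light/12 h dark, 19° C, 75% RH. Read-out: % disease control vs untreated check, 6–8 d after application.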

Phakopsora pachyrhizi = Phakopsora pachyrhizi / soybean / leaf disc preventative (Asian soybean rust); assay type: in vivo; settings: foliar, 288 h, 200 ppm in the applied formulation, soybean leaf disks, inoculated one day after application, assessed 12 to 14 days after application, vs untreated, read-out: disease control
Procedure, shortened: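 Read-out is percent disease control relative to untreated check discs, assessed once untreated discs show adequate disease, 12 to 14 days after application. Compounds, tested at 200 ppm in the applied formulation, are sprayed onto soybean leaf discs one day before inoculation with a spore suspension.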

Row | SMILES | melting point [°C] | pest or weed control at 200 ppm [1] [%] | inhibition of growth at 20 ppm [2] [%] | pest or weed control at 200 ppm [3] [%] | pest or weed control at 200 ppm (Phakopsora pachyrhizi) [%]
1 | COC(=O)c1ncn(Cc2ccc(-c3noc(C(F)(F)F)n3)cc2)n1 [Compound 1.37, methyl 1-[[4-[5-(trifluoromethyl)-1,2,4-oxadiazol-3-yl]phenyl]methyl]-1,2,4-triazole-3-carboxylate] | 174 to 177.2 | ≥ 80 | ≥ 80 |  | 
2 | FC(F)(F)c1ncn(Cc2ccc(-c3noc(C(F)(F)F)n3)cc2)n1 [Compound 1.39] | 68.2 to 70.1 |  |  |  | 
3 | N#Cc1ncnn1Cc1ccc(-c2noc(C(F)(F)F)n2)cc1 [Compound 1.41, 2-[[4-[5-(trifluoromethyl)-1,2,4-oxadiazol-3-yl]phenyl]methyl]-1,2,4-triazole-3-carbonitrile] | 120 to 124 |  |  |  | 
4 | COc1cc(-c2noc(C(F)(F)F)n2)ccc1Cn1cncn1 [Compound 1.97, 3-[3-methoxy-4-(1,2,4-triazol-1-ylmethyl)phenyl]-5-(trifluoromethyl)-1,2,4-oxadiazole] | 102 to 106 |  | ≥ 80 | ≥ 80 | 
5 | CCOC(=O)c1cnn(Cc2ccc(-c3noc(C(F)(F)F)n3)c(F)c2)c1 [Compound 1.252, ethyl 1-[[3-fluoro-4-[5-(trifluoromethyl)-1,2,4-oxadiazol-3-yl]phenyl]methyl]pyrazole-4-carboxylate] | 131 to 135 |  |  |  | 
6 | N#Cc1ncn(Cc2ccc(-c3noc(C(F)(F)F)n3)c(F)c2)n1 [Compound 1.255, 1-[[3-fluoro-4-[5-(trifluoromethyl)-1,2,4-oxadiazol-3-yl]phenyl]methyl]-1,2,4-triazole-3-carbonitrile] | 120 to 123 | ≥ 80 | ≥ 80 | ≥ 80 | 
7 | N#Cc1ncn(Cc2ccc(-c3noc(C(F)(F)F)n3)nc2)n1 [Compound 1.257, 1-[[6-[5-(trifluoromethyl)-1,2,4-oxadiazol-3-yl]-3-pyridyl]methyl]-1,2,4-triazole-3-carbonitrile] | 105 to 108 |  | ≥ 80 |  | 
8 | CCOC(=O)c1cnn(Cc2ccc(-c3noc(C(F)(F)F)n3)nc2)c1 [Compound 1.269, ethyl 1-[[6-[5-(trifluoromethyl)-1,2,4-oxadiazol-3-yl]-3-pyridyl]methyl]pyrazole-4-carboxylate] | 88 to 90 | ≥ 80 | ≥ 80 | ≥ 80 | 
9 | CON=Cc1cnn(Cc2ccc(-c3noc(C(F)(F)F)n3)cc2)c1 [Compound 1.285] | 88 to 98 |  |  |  | 
10 | CNC(=O)c1cnnn1Cc1ccc(-c2noc(C(F)(F)F)n2)cc1 [Compound 1.291, N-methyl-3-[[4-[5-(trifluoromethyl)-1,2,4-oxadiazol-3-yl]phenyl]methyl]triazole-4-carboxamide] | 222 to 224 |  |  | ≥ 80 | 
11 | CC1CN(Cc2ccc(-c3noc(C(F)(F)F)n3)cc2)CC(C)O1 (stereo not shown) [Compound 1.306, 2,6-dimethyl-4-[[4-[5-(trifluoromethyl)-1,2,4-oxadiazol-3-yl]phenyl]methyl]morpholine] |  | ≥ 80 | ≥ 80 | ≥ 80 | ≥ 80
12 | CCOC(=O)c1cnn(CC(F)c2ccc(-c3noc(C(F)(F)F)n3)cc2)c1 (stereo not shown) [Compound 1.311, ethyl 1-[2-fluoro-2-[4-[5-(trifluoromethyl)-1,2,4-oxadiazol-3-yl]phenyl]ethyl]pyrazole-4-carboxylate] | 145 to 147 |  |  |  | 
13 | N#CC(c1ccc(-c2noc(C(F)(F)F)n2)cc1)N1CCOCC1 (stereo not shown) [Compound 1.312, 2-morpholino-2-[4-[5-(trifluoromethyl)-1,2,4-oxadiazol-3-yl]phenyl]acetonitrile] |  | ≥ 80 | ≥ 80 | ≥ 80 | ≥ 80

Further lines, with some results ahead:

Row | melting point [°C] | SMILES | pest or weed control at 200 ppm [1] [%] | inhibition of growth at 20 ppm [2] [%] | pest or weed control at 200 ppm [3] [%] | pest or weed control at 200 ppm (Phakopsora pachyrhizi) [%]
14 | 157.6 to 161.9 | CCc1cccc(CC)c1-n1ncc(-c2cn(Cc3ccc(-c4noc(C(F)(F)F)n4)cc3)nn2)c1C [Compound 1.31, 3-[4-[[4-[1-(2,6-diethylphenyl)-5-methyl-pyrazol-4-yl]triazol-1-yl]methyl]phenyl]-5-(trifluoromethyl)-1,2,4-oxadiazole] |  |  |  | 
15 | 124 to 129 | CN(C)C(=O)c1cnn(Cc2ccc(-c3noc(C(F)(F)F)n3)cc2)c1 [Compound 1.149, N,N-dimethyl-1-[[4-[5-(trifluoromethyl)-1,2,4-oxadiazol-3-yl]phenyl]methyl]pyrazole-4-carboxamide] |  |  |  | 
16 | 156 to 161 | CNC(=O)c1cnn(Cc2ccc(-c3noc(C(F)(F)F)n3)cc2)c1 [Compound 1.150, N-methyl-1-[[4-[5-(trifluoromethyl)-1,2,4-oxadiazol-3-yl]phenyl]methyl]pyrazole-4-carboxamide] |  |  |  | 
17 | 122 to 129 | COC(=O)c1cnn(Cc2ccc(-c3noc(C(F)(F)F)n3)cc2)c1 [Compound 1.248, methyl 1-[[4-[5-(trifluoromethyl)-1,2,4-oxadiazol-3-yl]phenyl]methyl]pyrazole-4-carboxylate] |  |  |  | 
18 | 132 to 142 | COCCNC(=O)c1cnn(Cc2ccc(-c3noc(C(F)(F)F)n3)cc2)c1 [Compound 1.250, N-(2-methoxyethyl)-1-[[4-[5-(trifluoromethyl)-1,2,4-oxadiazol-3-yl]phenyl]methyl]pyrazole-4-carboxamide] | ≥ 80 | ≥ 80 |  | 
19 | 86 to 96 | CCN(CC)C(=O)c1cnn(Cc2ccc(-c3noc(C(F)(F)F)n3)cc2)c1 [Compound 1.259, N,N-diethyl-1-[[4-[5-(trifluoromethyl)-1,2,4-oxadiazol-3-yl]phenyl]methyl]pyrazole-4-carboxamide] |  |  |  | 
20 | 102 to 112 | CON(C)C(=O)c1cnn(Cc2ccc(-c3noc(C(F)(F)F)n3)cc2)c1 [Compound 1.260, N-methoxy-N-methyl-1-[[4-[5-(trifluoromethyl)-1,2,4-oxadiazol-3-yl]phenyl]methyl]pyrazole-4-carboxamide] |  |  |  | 
21 | 81 to 91 | CC(C)(C)OC(=O)c1cnn(Cc2ccc(-c3noc(C(F)(F)F)n3)cc2)c1 [Compound 1.262, ~{tert}-butyl 1-[[4-[5-(trifluoromethyl)-1,2,4-oxadiazol-3-yl]phenyl]methyl]pyrazole-4-carboxylate] | ≥ 80 | ≥ 80 |  | 
22 | 105 to 115 | CCCOC(=O)c1cnn(Cc2ccc(-c3noc(C(F)(F)F)n3)cc2)c1 [Compound 1.264, propyl 1-[[4-[5-(trifluoromethyl)-1,2,4-oxadiazol-3-yl]phenyl]methyl]pyrazole-4-carboxylate] |  |  |  | 
23 | 128 to 138 | CONC(=O)c1cnn(Cc2ccc(-c3noc(C(F)(F)F)n3)cc2)c1 [Compound 1.266, ~{N}-methoxy-1-[[4-[5-(trifluoromethyl)-1,2,4-oxadiazol-3-yl]phenyl]methyl]pyrazole-4-carboxamide] |  |  |  | 
24 | 166 to 176 | CCNC(=O)c1cnn(Cc2ccc(-c3noc(C(F)(F)F)n3)cc2)c1 [Compound 1.267, ~{N}-ethyl-1-[[4-[5-(trifluoromethyl)-1,2,4-oxadiazol-3-yl]phenyl]methyl]pyrazole-4-carboxamide] |  |  |  | 
25 | 208 to 210 | O=C(O)c1cn(Cc2ccc(-c3noc(C(F)(F)F)n3)cc2)nn1 [Compound 1.271, 1-[[4-[5-(trifluoromethyl)-1,2,4-oxadiazol-3-yl]phenyl]methyl]triazole-4-carboxylic acid] | ≥ 80 |  | ≥ 80 | 
26 | 205 to 207 | COc1ccc(NC(=O)c2cn(Cc3ccc(-c4noc(C(F)(F)F)n4)cc3)nn2)cc1 [Compound 1.281, N-(4-methoxyphenyl)-1-[[4-[5-(trifluoromethyl)-1,2,4-oxadiazol-3-yl]phenyl]methyl]triazole-4-carboxamide] | ≥ 80 | ≥ 80 | ≥ 80 | 
27 | 233 to 235 | O=C(Nc1ccc(Cl)cc1)c1cn(Cc2ccc(-c3noc(C(F)(F)F)n3)cc2)nn1 [Compound 1.282, N-(4-chlorophenyl)-1-[[4-[5-(trifluoromethyl)-1,2,4-oxadiazol-3-yl]phenyl]methyl]triazole-4-carboxamide] | ≥ 80 |  |  | 
28 | 75 to 85 | FC(F)(F)c1nc(-c2ccc(Cn3cc(C=NOCc4ccccc4)cn3)cc2)no1 [Compound 1.289, N-benzyloxy-1-[1-[[4-[5-(trifluoromethyl)-1,2,4-oxadiazol-3-yl]phenyl]methyl]pyrazol-4-yl]methanimine] | ≥ 80 | ≥ 80 |  | 
